Data taken from PubChem BioAssay AID1845199 (Molecular Pharmacology Branch, DTP, NCI, 2023).

Test system: 556581-035-R-J1 tumor spheroid viability, % test/control
Assay: Anticancer human tumor 556581-035-R-J1 patient-derived ovarian carcinoma cell line growth inhibition
Settings: spheroids with HUVEC and MSC; for IC50: curve of first compound; for viability, T/C: stronger effect = lower value
How it was run: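 Complex spheroids of malignant cells with endothelial cells and mesenchymal stem cells; agents alone or combined, from near clinical Cmax (or 10 microM if unknown) down in half-log steps, 0.25% DMSO final.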

[1] = second compound 1 µM, first compound 0.0316 µM
[2] = second compound 1 µM, first compound 0.1 µM
[3] = second compound 1 µM, first compound 0.316 µM
[4] = second compound 1 µM, first compound 1 µM
[5] = second compound 1 µM, first compound 3.16 µM
[6] = second compound 1 µM, first compound 10 µM
[7] = second compound 3.16 µM, first compound 0.0316 µM
[8] = second compound 3.16 µM, first compound 0.1 µM
[9] = second compound 3.16 µM, first compound 0.316 µM
[10] = second compound 3.16 µM, first compound 1 µM
[11] = second compound 3.16 µM, first compound 3.16 µM
[12] = second compound 3.16 µM, first compound 10 µM
[13] = second compound 10 µM, first compound 0.0316 µM
[14] = second compound 10 µM, first compound 0.1 µM
[15] = second compound 10 µM, first compound 0.316 µM
[16] = second compound 10 µM, first compound 1 µM
[17] = second compound 10 µM, first compound 3.16 µM
[18] = second compound 10 µM, first compound 10 µM
[19] = second compound 31.6 µM, first compound 0.0316 µM
[20] = second compound 31.6 µM, first compound 0.1 µM
[21] = second compound 31.6 µM, first compound 0.316 µM
[22] = second compound 31.6 µM, first compound 1 µM
[23] = second compound 31.6 µM, first compound 3.16 µM
[24] = second compound 31.6 µM, first compound 10 µM
[25] = second compound 100 µM, first compound 0.0316 µM
[26] = second compound 100 µM, first compound 0.1 µM
[27] = second compound 100 µM, first compound 0.316 µM
[28] = second compound 100 µM, first compound 1 µM
[29] = second compound 100 µM, first compound 3.16 µM
[30] = second compound 100 µM, first compound 10 µM
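Further: spheroids exposed to compounds for 7 days before viability read.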

[2H]c1nc(C)nc([2H])c1-c1cc(NC[C@@H](C)c2cccc3c(C(=O)NC)ccnc23)ncn1 + Cn1nnc2c(C(N)=O)ncn2c1=O
IC50 (second compound 1 µM): > 10 µM
IC50 (second compound 3.16 µM): > 10 µM
IC50 (second compound 10 µM): > 10 µM
IC50 (second compound 31.6 µM): > 10 µM
IC50 (second compound 100 µM): > 10 µM
viability, T/C [1]: 111%
viability, T/C [2]: 111%
viability, T/C [3]: 106%
viability, T/C [4]: 112%
viability, T/C [5]: 108%
viability, T/C [6]: 112%
viability, T/C [7]: 98.7%
viability, T/C [8]: 104%
viability, T/C [9]: 106%
viability, T/C [10]: 115%
viability, T/C [11]: 119%
viability, T/C [12]: 113%
viability, T/C [13]: 105%
viability, T/C [14]: 103%
viability, T/C [15]: 115%
viability, T/C [16]: 112%
viability, T/C [17]: 113%
viability, T/C [18]: 115%
viability, T/C [19]: 116%
viability, T/C [20]: 109%
viability, T/C [21]: 115%
viability, T/C [22]: 119%
viability, T/C [23]: 116%
viability, T/C [24]: 112%
viability, T/C [25]: 115%
viability, T/C [26]: 114%
viability, T/C [27]: 116%
viability, T/C [28]: 114%
viability, T/C [29]: 108%
viability, T/C [30]: 114%

COc1cc(C)[nH]c(=O)c1CN1CCc2c(Cl)cc(C(OC)C3COC3)c(Cl)c2C1=O (stereo not given) + Cn1nnc2c(C(N)=O)ncn2c1=O
IC50 (second compound 1 µM): > 10 µM
IC50 (second compound 3.16 µM): > 10 µM
IC50 (second compound 10 µM): > 10 µM
IC50 (second compound 31.6 µM): > 10 µM
IC50 (second compound 100 µM): > 10 µM
viability, T/C [1]: 105%
viability, T/C [2]: 102%
viability, T/C [3]: 117%
viability, T/C [4]: 109%
viability, T/C [5]: 107%
viability, T/C [6]: 102%
viability, T/C [7]: 99.3%
viability, T/C [8]: 113%
viability, T/C [9]: 100%
viability, T/C [10]: 107%
viability, T/C [11]: 105%
viability, T/C [12]: 105%
viability, T/C [13]: 105%
viability, T/C [14]: 106%
viability, T/C [15]: 106%
viability, T/C [16]: 112%
viability, T/C [17]: 111%
viability, T/C [18]: 104%
viability, T/C [19]: 115%
viability, T/C [20]: 118%
viability, T/C [21]: 110%
viability, T/C [22]: 107%
viability, T/C [23]: 108%
viability, T/C [24]: 108%
viability, T/C [25]: 112%
viability, T/C [26]: 107%
viability, T/C [27]: 106%
viability, T/C [28]: 115%
viability, T/C [29]: 114%
viability, T/C [30]: 103%

Cn1ncnc1[C@H]1c2n[nH]c(=O)c3cc(F)cc(c23)N[C@@H]1c1ccc(F)cc1 + COc1cc2c(cc1O)CCNC21CSC2c3c(OC(C)=O)c(C)c4c(c3C(COC1=O)N1C(O)C3Cc5cc(C)c(OC)c(O)c5C(C21)N3C)OCO4
IC50 (second compound 30 pM): > 3 µM
IC50 (second compound 94.9 pM): > 3 µM
IC50 (second compound 0.0003 µM): 2.23 µM
IC50 (second compound 0.000949 µM): < 0.00949 µM
IC50 (second compound 0.003 µM): < 0.00949 µM
viability, T/C (second compound 30 pM, first compound 0.00949 µM): 100%
viability, T/C (second compound 30 pM, first compound 0.03 µM): 96.7%
viability, T/C (second compound 30 pM, first compound 0.0949 µM): 93.5%
viability, T/C (second compound 30 pM, first compound 0.3 µM): 86.7%
viability, T/C (second compound 30 pM, first compound 0.949 µM): 74.5%
viability, T/C (second compound 30 pM, first compound 3 µM): 58.7%
viability, T/C (second compound 94.9 pM, first compound 0.00949 µM): 99.7%
viability, T/C (second compound 94.9 pM, first compound 0.03 µM): 97.7%
viability, T/C (second compound 94.9 pM, first compound 0.0949 µM): 89.5%
viability, T/C (second compound 94.9 pM, first compound 0.3 µM): 84.9%
viability, T/C (second compound 94.9 pM, first compound 0.949 µM): 69.7%
viability, T/C (second compound 94.9 pM, first compound 3 µM): 51.7%
viability, T/C (second compound 0.0003 µM, first compound 0.00949 µM): 85.6%
viability, T/C (second compound 0.0003 µM, first compound 0.03 µM): 91.8%
viability, T/C (second compound 0.0003 µM, first compound 0.0949 µM): 84.1%
viability, T/C (second compound 0.0003 µM, first compound 0.3 µM): 79.1%
viability, T/C (second compound 0.0003 µM, first compound 0.949 µM): 68.7%
viability, T/C (second compound 0.0003 µM, first compound 3 µM): 43.4%
viability, T/C (second compound 0.000949 µM, first compound 0.00949 µM): 39.6%
viability, T/C (second compound 0.000949 µM, first compound 0.03 µM): 33.9%
viability, T/C (second compound 0.000949 µM, first compound 0.0949 µM): 31.8%
viability, T/C (second compound 0.000949 µM, first compound 0.3 µM): 28.1%
viability, T/C (second compound 0.000949 µM, first compound 0.949 µM): 7.63%
viability, T/C (second compound 0.000949 µM, first compound 3 µM): 1.54%
viability, T/C (second compound 0.003 µM, first compound 0.00949 µM): 0.96%
viability, T/C (second compound 0.003 µM, first compound 0.03 µM): 0.99%
viability, T/C (second compound 0.003 µM, first compound 0.0949 µM): 0.97%
viability, T/C (second compound 0.003 µM, first compound 0.3 µM): 1.34%
viability, T/C (second compound 0.003 µM, first compound 0.949 µM): 1.27%
viability, T/C (second compound 0.003 µM, first compound 3 µM): 1.68%
